How the values were obtained:
HepG2 tumor cells [1] = assay: confocal microscopy of LDLR-specific uptake of r-SiPcBOA-LDL; assay type: cell-based, human; conditions: same amount of dye alone as in r-SiPcBOA-LDL
Method: Confocal Microscopy Studies: For confocal microscopy studies, HepG2 cells were grown in 4-well Lab-Tek chamber slides (Naperville, Ill.) at a density of 40,000 cells/well. Experiments were started, after two quick washes with pre-incubation medium (medium with 0.8% (w/v) BSA instead of FBS), by the addition of pre-incubation medium containing the indicated amounts of r-SiPcBOA-LDL/AcLDL and/or unlabeled LDL. After a 4 h incubation at 37° C., the cells were washed three times with ice-cold PBS and fixed for 15 minutes with 3% formaldehyde in PBS at room temperature. Then the chamber slides were mounted and sealed for confocal microscopy analysis. Confocal microscopy was performed with a Leica TCS SPII laser scanning confocal microscope (Heidelberg, Germany). Filter settings were 633 nm for excitation and 638-800 nm for emission. Confocal Microscopy Studies of the LDLR-Specific Uptake: To visualize LDLR-mediated internalization of r-SiPcBOA-LDL, we performed laser scanning confocal microscopy studies on HepG2 tumor cells. […] To determine the specificity of this r-SiPcBOA-LDL toward LDLR, three sets of control experiments were performed.

HepG2 tumor cells [2] = assay: laser scanning confocal microscopy of r-(Pyro-CE)-LDL uptake; assay type: cell-based, human; conditions: 20 μg/mL r-(Pyro-CE)-LDL, or same amount of Pyro-CE without reconstitution into LDL
Method: To visualize LDLR-mediated internalization of these NIRF/PDT agents into tumor cells, we performed laser scanning confocal microscopy studies on r-(Pyro-CE)-LDL in HepG2 tumor cells. Four sets of experiments were performed on a Leica TCS SPII laser scanning confocal microscope (Heidelberg, Germany). […] In a control experiment, HepG2 cells were incubated with native LDL but without the photosensitizer at 37° C. for 3 h to determine any possible background fluorescence. […] To determine the specificity of this LDL based photosensitizer toward LDL receptors, HepG2 cells were incubated with either a 25-fold excess of unlabeled LDL in addition to the 20 μg/mL r-(Pyro-CE)-LDL or with the same amount of Pyro-CE but without reconstitution of this agent into LDL.

## tetra-t-butyl silicon phthalocyanine bisoleate [(tBu)4SiPcBOA]
HepG2 tumor cells [1]
  fluorescence signal (confocal): did not lead to any observable fluorescence

## pyropheophorbide cholesterol oleate [Pyro-CE]
HepG2 tumor cells [2]
  fluorescence signal (confocal): No fluorescence
